Key:
Type in all cases: in vivo
[1] = tested on: lambsquarters (Chenopodium album, CHEAL); assay: Post-emerge test, greenhouse herbicide activity screening; settings: post-emerge, 14 days after application, rating scale 0-100
Outline: (§1)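 Visual ratings on a 0-100 scale (0 no damage, 100 all plants dead) were taken at 14 days after treatment. Rates of 15-1000 g ai/ha in acetone, 187 l/ha, were sprayed onto soil one day after planting (pre-emerge) or onto 2-3 leaf plants with 0.25% v/v surfactant (post-emerge).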

[2] = tested on: johnsongrass (Sorghum halepense, SORHA); assay: as above; settings: post-emerge, 14 days after application, rating scale 0-100
Outline: as §1

[3] = tested on: green foxtail (Setaria viridis, SETVI); assay: as above; settings: post-emerge, 14 days after application, rating scale 0-100
Outline: as §1

[4] = tested on: sicklepod (Cassia obtusifolia, CASOB); assay: as above; settings: post-emerge, 14 days after application, rating scale 0-100
Outline: as §1

[5] = tested on: large crabgrass (Digitaria sanguinalis, DIGSA); assay: as above; settings: post-emerge, 14 days after application, rating scale 0-100
Outline: as §1

[6] = tested on: velvetleaf (Abutilon theophrasti, ABUTH); assay: as above; settings: post-emerge, 14 days after application, rating scale 0-100
Outline: as §1

[7] = tested on: barnyardgrass (Echinochloa crus-galli, ECHCG); assay: as above; settings: post-emerge, 14 days after application, rating scale 0-100
Outline: as §1

[8] = tested on: redroot pigweed (Amaranthus retroflexus, AMARE); assay: as above; settings: post-emerge, 14 days after application, rating scale 0-100
Outline: as §1

[9] = tested on: ivyleaf morningglory (Ipomoea hederacea, IPOHE); assay: as above; settings: post-emerge, 14 days after application, rating scale 0-100
Outline: as §1

[10] = tested on: common ragweed (Ambrosia artemisizfolia L., AMBEL); assay: as above; settings: post-emerge, 14 days after application, rating scale 0-100
Outline: as §1

[11] = tested on: redroot pigweed (Amaranthus retroflexus, AMARE); assay: Pre-emerge test, greenhouse herbicide activity screening; settings: rated 14 days after application, 0 = no damage, 100 = complete death
Outline: as §1

[12] = tested on: lambsquarters (Chenopodium album, CHEAL); assay: as above; settings: rated 14 days after application, 0 = no damage, 100 = complete death
Outline: (§2)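 Sandy loam pots; pre-emerge: sown 1 d pre-spray, surface-watered after, then bottom-watered. Post-emerge: sown 8–21 d before, 2–3 leaf stage, + 0.25% v/v NIS, bottom-watered. Acetone, 187 l/ha track spray, 15–1000 g ai/ha. 0–100 injury score, day 14.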

[13] = tested on: johnsongrass (Sorghum halepense, SORHA); assay: as above; settings: rated 14 days after application, 0 = no damage, 100 = complete death
Outline: as §2

[14] = tested on: green foxtail (Setaria viridis, SETVI); assay: as above; settings: rated 14 days after application, 0 = no damage, 100 = complete death
Outline: as §2

[15] = tested on: sicklepod (Cassia obtusifolia, CASOB); assay: as above; settings: rated 14 days after application, 0 = no damage, 100 = complete death
Outline: as §2

[16] = tested on: large crabgrass (Digitaria sanguinalis, DIGSA); assay: as above; settings: rated 14 days after application, 0 = no damage, 100 = complete death
Outline: as §2

[17] = tested on: velvetleaf (Abutilon theophrasti, ABUTH); assay: as above; settings: rated 14 days after application, 0 = no damage, 100 = complete death
Outline: as §2

[18] = tested on: barnyardgrass (Echinochloa crus-galli, ECHCG); assay: as above; settings: rated 14 days after application, 0 = no damage, 100 = complete death
Outline: as §2

[19] = tested on: ivyleaf morningglory (Ipomoea hederacea, IPOHE); assay: as above; settings: rated 14 days after application, 0 = no damage, 100 = complete death
Outline: as §2

[20] = tested on: common ragweed (Ambrosia artemisizfolia L., AMBEL); assay: as above; settings: rated 14 days after application, 0 = no damage, 100 = complete death
Outline: as §2

[21] = tested on: field corn (Zea mays L., var. Dekalb 535, CORN); assay: Post-emerge test, crop safety; settings: post-emerge, 14 days after application, rating scale 0-100
Outline: as §2

[22] = tested on: upland rice (Oryza sp., var. Tebonnet, RICE); assay: Post-emerge test, crop safety; settings: post-emerge, 14 days after application, rating scale 0-100
Outline: as §2

[23] = tested on: field corn (Zea mays L., var. Dekalb 535, CORN); assay: Pre-emerge test, crop safety; settings: rated 14 days after application, 0 = no damage, 100 = complete death
Outline: (§3)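 Compounds in acetone were track-sprayed at 187 l/ha, 15–1000 g ai/ha, onto sandy loam pots. Pre-emerge seeds were sown one day before spraying, with surface watering afterwards. Post-emerge plants were at the 2–3 leaf stage and sprayed with 0.25% v/v non-ionic surfactant. Injury was rated 0–100 at 14 days.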

[24] = tested on: upland rice (Oryza sp., var. Tebonnet, RICE); assay: Pre-emerge test, crop safety; settings: rated 14 days after application, 0 = no damage, 100 = complete death
Outline: as §3

COc1c(Cl)cc(F)c(-n2c(=O)cc(C(F)(F)F)n(C)c2=O)c1NC(=O)c1c(F)c(F)c(F)c(F)c1F [2-52]
50: Pre-emerge Herbicidal Activity, phytotoxicity rating (0-100), CHEAL ([12]; 63 g ai/ha)
20: phytotoxicity rating AMBEL ([10]; 63 g ai/ha)
30: phytotoxicity rating ABUTH ([6]; 63 g ai/ha) | phytotoxicity rating AMARE ([8]; 63 g ai/ha)
10: phytotoxicity rating CHEAL ([1]; 63 g ai/ha) | phytotoxicity rating IPOHE ([9]; 63 g ai/ha) | Pre-emerge Herbicidal Activity, phytotoxicity rating (0-100), ABUTH ([17]; 63 g ai/ha)
0: phytotoxicity rating SORHA ([2]; 63 g ai/ha) | phytotoxicity rating SETVI ([3]; 63 g ai/ha) | phytotoxicity rating CASOB ([4]; 63 g ai/ha) | phytotoxicity rating DIGSA ([5]; 63 g ai/ha) | phytotoxicity rating ECHCG ([7]; 63 g ai/ha) | Pre-emerge Herbicidal Activity, phytotoxicity rating (0-100), SORHA ([13]; 63 g ai/ha) | Pre-emerge Herbicidal Activity, phytotoxicity rating (0-100), CASOB ([15]; 63 g ai/ha) | Pre-emerge Herbicidal Activity, phytotoxicity rating (0-100), DIGSA ([16]; 63 g ai/ha) | Pre-emerge Herbicidal Activity, phytotoxicity rating (0-100), ECHCG ([18]; 63 g ai/ha) | Pre-emerge Herbicidal Activity, phytotoxicity rating (0-100), IPOHE ([19]; 63 g ai/ha) | Pre-emerge Herbicidal Activity, phytotoxicity rating (0-100), AMBEL ([20]; 63 g ai/ha) | phytotoxicity rating CORN ([21]; 63 g ai/ha) | phytotoxicity rating RICE ([22]; 63 g ai/ha) | Pre-emerge phytotoxicity rating (0-100), crop damage, CORN ([23]; 63 g ai/ha) | Pre-emerge phytotoxicity rating (0-100), crop damage, RICE ([24]; 63 g ai/ha)
40: Pre-emerge Herbicidal Activity, phytotoxicity rating (0-100), SETVI ([14]; 63 g ai/ha)
100: Pre-emerge Herbicidal Activity, phytotoxicity rating (0-100), AMARE ([11]; 63 g ai/ha)

COc1c(Cl)cc(F)c(-n2c(=O)cc(C(F)(F)F)n(C)c2=O)c1NC(=O)c1ccccc1Cl [2-53]
30: phytotoxicity rating RICE ([22]; 63 g ai/ha)
10: phytotoxicity rating CORN ([21]; 63 g ai/ha)
0: phytotoxicity rating SORHA ([2]; 63 g ai/ha) | phytotoxicity rating DIGSA ([5]; 63 g ai/ha) | phytotoxicity rating ECHCG ([7]; 63 g ai/ha)
50: phytotoxicity rating SORHA ([2]; 250 g ai/ha)
70: phytotoxicity rating CASOB ([4]; 63 g ai/ha) | phytotoxicity rating ECHCG ([7]; 250 g ai/ha) | phytotoxicity rating AMBEL ([10]; 63 g ai/ha) | phytotoxicity rating CORN ([21]; 250 g ai/ha) | phytotoxicity rating RICE ([22]; 250 g ai/ha)
95: phytotoxicity rating CHEAL ([1]; 63 g ai/ha) | Pre-emerge Herbicidal Activity, phytotoxicity rating (0-100), CASOB ([15]; 63 g ai/ha)
99: Pre-emerge Herbicidal Activity, phytotoxicity rating (0-100), ECHCG ([18]; 250 g ai/ha)
25: Pre-emerge phytotoxicity rating (0-100), crop damage, CORN ([23]; 63 g ai/ha)
20: phytotoxicity rating SETVI ([3]; 63 g ai/ha) | phytotoxicity rating DIGSA ([5]; 250 g ai/ha)
100: phytotoxicity rating CHEAL ([1]; 250 g ai/ha) | phytotoxicity rating CASOB ([4]; 250 g ai/ha) | phytotoxicity rating ABUTH ([6]; 63 g ai/ha) | phytotoxicity rating ABUTH ([6]; 250 g ai/ha) | phytotoxicity rating AMARE ([8]; 250 g ai/ha) | phytotoxicity rating IPOHE ([9]; 250 g ai/ha) | Pre-emerge Herbicidal Activity, phytotoxicity rating (0-100), AMARE ([11]; 63 g ai/ha) | Pre-emerge Herbicidal Activity, phytotoxicity rating (0-100), AMARE ([11]; 250 g ai/ha) | Pre-emerge Herbicidal Activity, phytotoxicity rating (0-100), CHEAL ([12]; 63 g ai/ha) | Pre-emerge Herbicidal Activity, phytotoxicity rating (0-100), CHEAL ([12]; 250 g ai/ha) | Pre-emerge Herbicidal Activity, phytotoxicity rating (0-100), SORHA ([13]; 250 g ai/ha) | Pre-emerge Herbicidal Activity, phytotoxicity rating (0-100), SETVI ([14]; 63 g ai/ha) | Pre-emerge Herbicidal Activity, phytotoxicity rating (0-100), SETVI ([14]; 250 g ai/ha) | Pre-emerge Herbicidal Activity, phytotoxicity rating (0-100), CASOB ([15]; 250 g ai/ha) | Pre-emerge Herbicidal Activity, phytotoxicity rating (0-100), DIGSA ([16]; 250 g ai/ha) | Pre-emerge Herbicidal Activity, phytotoxicity rating (0-100), ABUTH ([17]; 63 g ai/ha) | Pre-emerge Herbicidal Activity, phytotoxicity rating (0-100), ABUTH ([17]; 250 g ai/ha) | Pre-emerge Herbicidal Activity, phytotoxicity rating (0-100), IPOHE ([19]; 63 g ai/ha) | Pre-emerge Herbicidal Activity, phytotoxicity rating (0-100), IPOHE ([19]; 250 g ai/ha) | Pre-emerge Herbicidal Activity, phytotoxicity rating (0-100), AMBEL ([20]; 250 g ai/ha)
40: phytotoxicity rating SETVI ([3]; 250 g ai/ha) | Pre-emerge Herbicidal Activity, phytotoxicity rating (0-100), SORHA ([13]; 63 g ai/ha) | Pre-emerge Herbicidal Activity, phytotoxicity rating (0-100), ECHCG ([18]; 63 g ai/ha)
80: Pre-emerge Herbicidal Activity, phytotoxicity rating (0-100), AMBEL ([20]; 63 g ai/ha) | Pre-emerge phytotoxicity rating (0-100), crop damage, RICE ([24]; 63 g ai/ha)
90: phytotoxicity rating AMARE ([8]; 63 g ai/ha) | phytotoxicity rating IPOHE ([9]; 63 g ai/ha) | phytotoxicity rating AMBEL ([10]; 250 g ai/ha) | Pre-emerge Herbicidal Activity, phytotoxicity rating (0-100), DIGSA ([16]; 63 g ai/ha) | Pre-emerge phytotoxicity rating (0-100), crop damage, CORN ([23]; 250 g ai/ha) | Pre-emerge phytotoxicity rating (0-100), crop damage, RICE ([24]; 250 g ai/ha)

From patent US6355799B1, “Substituted benzene compounds, process for their preparation, and herbicidal and defoliant compositions containing them” (ISK Americas Incorporated, priority 1997, dated 2002)
